In ChEMBL document CHEMBL1201862, “PubChem BioAssay data set” (2004):
Activity calls are given as the source filed them.

Columns and labels:
[1] = molecular target: UDP-galactopyranose mutase (Mycobacterium tuberculosis, UniProt P9WIQ1); test: Inhibitors of Mycobacterium tuberculosis UDP-galactopyranose mutase (UGM) enzyme Measured in Biochemical System Using Plate Reader - 2105-02_Inhibitor_Dose_CherryPick_Activity. [Related pubchem assays (depositor defined):AID504439]
[2] = microbe, parasite or virus in culture; type: functional; settings: Mycobacterium tuberculosis
H4 = test: Luminescence Cell-Based Dose Response HTS to Identify Activators of 5'UTR Stem-Loop Driven Prion Protein mRNA Translation in H4 Neuroglioblastoma Cells. [Related pubchem assays: 1829 (Project Summary), 1814 (Primary HTS)]; type: functional; settings: Homo sapiens
[3] = Luminescence Cell-Based Dose Response HTS to Identify Activators of Luciferase Translation or Activity in H4 […] Cells. [Related pubchem assays: 1829 (Project Summary), 1814 (Primary HTS)]; type: functional
Exodeoxyribonuclease V = molecular target: T1, Exodeoxyribonuclease V (Escherichia coli (strain K12), UniProt P04993+P07648+P08394); test: RecBCD inhibition via phage-restricted bacterial growth – absorbance, V66 E. coli, mutant T4 phage, counter-screen for AddAB inhibitor project, dose response (AID 492957); type: functional, cell-based, Escherichia coli str. K-12 substr. MG1655
T1 sequence (P04993 whole entry): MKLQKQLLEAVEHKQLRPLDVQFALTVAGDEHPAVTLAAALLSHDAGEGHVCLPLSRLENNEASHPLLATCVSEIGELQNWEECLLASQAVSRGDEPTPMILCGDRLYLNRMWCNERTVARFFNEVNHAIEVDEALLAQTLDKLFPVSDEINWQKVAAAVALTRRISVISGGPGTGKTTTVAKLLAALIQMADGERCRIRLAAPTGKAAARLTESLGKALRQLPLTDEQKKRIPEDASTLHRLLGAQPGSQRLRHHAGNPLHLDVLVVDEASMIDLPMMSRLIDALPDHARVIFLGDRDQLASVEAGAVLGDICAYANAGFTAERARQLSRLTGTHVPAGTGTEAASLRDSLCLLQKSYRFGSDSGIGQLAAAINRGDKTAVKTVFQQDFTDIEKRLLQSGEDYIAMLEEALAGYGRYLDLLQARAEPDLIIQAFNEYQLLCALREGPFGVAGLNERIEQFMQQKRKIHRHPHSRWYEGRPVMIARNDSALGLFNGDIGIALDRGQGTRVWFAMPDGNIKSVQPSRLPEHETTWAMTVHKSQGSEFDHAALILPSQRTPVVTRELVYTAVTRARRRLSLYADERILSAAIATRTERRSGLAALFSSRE
T1 sequence (P07648 whole entry): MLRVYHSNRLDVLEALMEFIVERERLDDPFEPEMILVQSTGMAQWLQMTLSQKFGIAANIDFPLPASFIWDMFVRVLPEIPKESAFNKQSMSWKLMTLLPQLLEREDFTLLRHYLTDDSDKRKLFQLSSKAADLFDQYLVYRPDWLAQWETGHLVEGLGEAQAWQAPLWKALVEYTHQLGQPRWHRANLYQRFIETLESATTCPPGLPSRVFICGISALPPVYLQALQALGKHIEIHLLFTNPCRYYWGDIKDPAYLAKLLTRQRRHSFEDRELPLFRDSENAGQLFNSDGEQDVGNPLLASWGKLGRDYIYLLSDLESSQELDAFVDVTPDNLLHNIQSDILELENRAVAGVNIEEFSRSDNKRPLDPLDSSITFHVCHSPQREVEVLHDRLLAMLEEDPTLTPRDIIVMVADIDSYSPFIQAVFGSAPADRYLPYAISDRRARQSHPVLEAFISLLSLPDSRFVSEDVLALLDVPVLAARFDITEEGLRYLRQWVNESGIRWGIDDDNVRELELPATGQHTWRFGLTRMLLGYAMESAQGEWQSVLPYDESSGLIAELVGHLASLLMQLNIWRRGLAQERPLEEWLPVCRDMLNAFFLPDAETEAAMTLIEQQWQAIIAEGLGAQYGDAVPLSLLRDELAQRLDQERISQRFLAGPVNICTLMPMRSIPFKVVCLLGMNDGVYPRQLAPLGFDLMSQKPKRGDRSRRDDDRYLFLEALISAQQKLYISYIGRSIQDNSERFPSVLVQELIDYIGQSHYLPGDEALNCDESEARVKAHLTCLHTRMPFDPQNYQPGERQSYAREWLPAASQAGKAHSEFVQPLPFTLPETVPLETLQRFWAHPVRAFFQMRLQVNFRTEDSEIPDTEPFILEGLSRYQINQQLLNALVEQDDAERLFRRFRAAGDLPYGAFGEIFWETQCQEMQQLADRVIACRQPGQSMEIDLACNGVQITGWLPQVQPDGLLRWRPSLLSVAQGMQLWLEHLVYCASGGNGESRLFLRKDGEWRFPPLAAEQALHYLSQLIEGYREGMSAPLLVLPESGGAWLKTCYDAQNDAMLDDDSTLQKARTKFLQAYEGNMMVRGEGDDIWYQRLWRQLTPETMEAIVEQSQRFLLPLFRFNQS
T1 sequence (P08394 whole entry): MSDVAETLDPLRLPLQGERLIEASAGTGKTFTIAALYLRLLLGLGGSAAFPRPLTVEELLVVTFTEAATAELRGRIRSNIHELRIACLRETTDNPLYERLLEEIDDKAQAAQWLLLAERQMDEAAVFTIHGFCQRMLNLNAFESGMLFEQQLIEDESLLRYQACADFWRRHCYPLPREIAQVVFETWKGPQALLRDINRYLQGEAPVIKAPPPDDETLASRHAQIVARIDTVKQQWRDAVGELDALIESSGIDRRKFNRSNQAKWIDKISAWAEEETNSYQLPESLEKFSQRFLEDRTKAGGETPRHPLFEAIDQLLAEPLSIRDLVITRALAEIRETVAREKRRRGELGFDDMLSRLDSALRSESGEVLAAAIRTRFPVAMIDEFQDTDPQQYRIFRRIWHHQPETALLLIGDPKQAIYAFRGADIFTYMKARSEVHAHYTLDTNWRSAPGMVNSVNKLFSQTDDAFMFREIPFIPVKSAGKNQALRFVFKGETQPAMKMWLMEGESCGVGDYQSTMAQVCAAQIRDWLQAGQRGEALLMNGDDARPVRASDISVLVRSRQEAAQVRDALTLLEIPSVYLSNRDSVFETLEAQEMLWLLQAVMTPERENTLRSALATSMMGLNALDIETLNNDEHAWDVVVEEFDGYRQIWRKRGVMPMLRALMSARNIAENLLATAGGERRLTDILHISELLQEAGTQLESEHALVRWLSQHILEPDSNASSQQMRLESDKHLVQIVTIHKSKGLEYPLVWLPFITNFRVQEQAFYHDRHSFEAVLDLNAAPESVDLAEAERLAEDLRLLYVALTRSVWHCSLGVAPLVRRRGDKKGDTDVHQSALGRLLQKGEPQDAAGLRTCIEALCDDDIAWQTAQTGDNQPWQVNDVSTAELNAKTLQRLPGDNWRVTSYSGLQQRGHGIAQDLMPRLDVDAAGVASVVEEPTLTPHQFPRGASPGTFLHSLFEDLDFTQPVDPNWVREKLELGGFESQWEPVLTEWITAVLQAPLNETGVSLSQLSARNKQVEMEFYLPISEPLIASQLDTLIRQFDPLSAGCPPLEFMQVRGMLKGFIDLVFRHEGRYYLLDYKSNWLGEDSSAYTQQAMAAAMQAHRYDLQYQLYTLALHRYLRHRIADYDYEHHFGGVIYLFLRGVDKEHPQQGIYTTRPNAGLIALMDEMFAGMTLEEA

[4] = viability of uninfected HEp-2 cells – cell-based, HTS, cytotoxicity control for RSV inhibitor project, dose response (AID 2410); type: functional; settings: human respiratory syncytial virus
[5] = Counterscreen for AddAB inhibitors: absorbance-based bacterial cell-based high throughput dose response assay for inhibitors of bacterial viability. [Related pubchem assays (depositor defined):AID435030, AID449728, AID449731, AID488942, AID488955, AID488956]; type: functional
[6] = Luminescence Cell-Based Dose Confirmation HTS to Identify Activators of 5'UTR Stem-Loop Driven Alpha-Synuclein mRNA Translation in H4 Neuroglioblastoma Cells. [Related pubchem assays: 1829 (Project Summary), 1814 (Primary HTS)]; type: functional
HEK293 = test: cells; type: functional, cell-based; settings: Homo sapiens
[7] = molecular target: T2, Nuclear receptor subfamily 0 group B member 1 (Homo sapiens, UniProt P51843); test: Luminescence-based cell-based high throughput dose response assay for inhibitors of the orphan nuclear receptor subfamily 0, group B, member 1 (DAX1; NR0B1). [Related pubchem assays (depositor defined):AID504766, AID504790]; type: functional
T2 sequence (P51843 whole entry): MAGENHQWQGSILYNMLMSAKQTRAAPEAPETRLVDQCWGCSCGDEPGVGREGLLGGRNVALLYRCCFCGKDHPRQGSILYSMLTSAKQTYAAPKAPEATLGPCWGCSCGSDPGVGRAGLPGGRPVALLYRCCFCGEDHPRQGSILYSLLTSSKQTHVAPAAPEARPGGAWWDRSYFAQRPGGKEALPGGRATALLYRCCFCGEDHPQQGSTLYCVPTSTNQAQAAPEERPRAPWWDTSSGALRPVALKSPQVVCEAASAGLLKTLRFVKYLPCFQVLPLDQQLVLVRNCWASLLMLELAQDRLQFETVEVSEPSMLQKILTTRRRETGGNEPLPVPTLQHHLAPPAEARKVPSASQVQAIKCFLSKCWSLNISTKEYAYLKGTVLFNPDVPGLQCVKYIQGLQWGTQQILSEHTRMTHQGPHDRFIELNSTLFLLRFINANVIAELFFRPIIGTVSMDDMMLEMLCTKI

CHO = CHO cell viability loss, potency – luminescence, cytotoxicity control for TLR9-MyD88 binding inhibitor project, dose response (AID 588339); type: functional, cell-based, hamster; settings: Cricetulus griseus;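 also: CHO cells stably coexpressing TLR9 and MyD88 fusions from primary screen; compound exposure lasted 48 hours before viability readout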
Beta Lactamase = Beta Lactamase (Pseudomonas aeruginosa, UniProt Q932Y6); test: BLA reporter interference, concentration series – BLA reporter cells, FRET fluorescence, artefact control for TLR9-MyD88 binding inhibitor project, dose response (AID 588341); type: cell-based;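 also: cell based assay in CHO-K1 cells stably expressing beta-lactamase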
Sequence of Beta Lactamase (Q932Y6 whole entry): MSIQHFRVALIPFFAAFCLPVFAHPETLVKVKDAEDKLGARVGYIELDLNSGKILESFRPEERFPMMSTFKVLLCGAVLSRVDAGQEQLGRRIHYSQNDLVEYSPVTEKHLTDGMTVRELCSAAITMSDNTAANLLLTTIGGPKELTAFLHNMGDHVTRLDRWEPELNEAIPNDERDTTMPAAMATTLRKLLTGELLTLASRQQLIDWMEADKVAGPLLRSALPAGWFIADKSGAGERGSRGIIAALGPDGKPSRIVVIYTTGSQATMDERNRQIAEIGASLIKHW

Cytochrome P450 3A4 = Cytochrome P450 3A4 (Homo sapiens, UniProt P08684);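 also: CYP3A4 tested as one member of a cytochrome P450 panel screen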
Sequence of Cytochrome P450 3A4 (P08684 whole entry): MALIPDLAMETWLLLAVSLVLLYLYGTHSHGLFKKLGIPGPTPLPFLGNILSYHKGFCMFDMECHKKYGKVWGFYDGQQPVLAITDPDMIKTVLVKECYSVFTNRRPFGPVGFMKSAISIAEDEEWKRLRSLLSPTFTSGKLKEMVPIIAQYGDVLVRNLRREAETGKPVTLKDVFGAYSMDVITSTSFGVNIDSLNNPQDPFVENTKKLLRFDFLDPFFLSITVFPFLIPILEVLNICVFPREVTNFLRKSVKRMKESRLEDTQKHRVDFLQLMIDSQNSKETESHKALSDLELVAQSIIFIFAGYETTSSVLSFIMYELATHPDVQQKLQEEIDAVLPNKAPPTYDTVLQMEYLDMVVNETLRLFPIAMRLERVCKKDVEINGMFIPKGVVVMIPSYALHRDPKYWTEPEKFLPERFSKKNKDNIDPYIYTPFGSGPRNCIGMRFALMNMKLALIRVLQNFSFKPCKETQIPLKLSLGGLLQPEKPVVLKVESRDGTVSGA

Cytochrome P450 2C19 = Cytochrome P450 2C19 (Homo sapiens, UniProt P33261); test: Cytochrome panel assay with activity outcomes. Panel member name: p450-cyp2c19 Compounds with AC50 equal or less than 10 uM are considered active; type: functional; settings: read-out: AC50
Sequence of Cytochrome P450 2C19 (P33261 whole entry): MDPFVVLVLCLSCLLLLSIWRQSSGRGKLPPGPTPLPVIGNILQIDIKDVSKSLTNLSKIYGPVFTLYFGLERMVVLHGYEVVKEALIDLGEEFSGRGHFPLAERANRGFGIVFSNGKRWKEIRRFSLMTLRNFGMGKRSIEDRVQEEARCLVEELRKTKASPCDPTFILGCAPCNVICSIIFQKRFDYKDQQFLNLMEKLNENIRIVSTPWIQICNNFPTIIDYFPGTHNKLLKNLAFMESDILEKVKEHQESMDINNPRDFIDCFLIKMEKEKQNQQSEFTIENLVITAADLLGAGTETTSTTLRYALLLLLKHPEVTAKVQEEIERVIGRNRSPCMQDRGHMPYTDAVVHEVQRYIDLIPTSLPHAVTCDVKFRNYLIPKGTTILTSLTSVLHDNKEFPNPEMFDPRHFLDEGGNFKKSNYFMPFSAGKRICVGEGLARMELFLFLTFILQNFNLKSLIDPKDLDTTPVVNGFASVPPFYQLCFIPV

[8] = molecular target: Glucose-6-phosphate 1-dehydrogenase (Homo sapiens, UniProt P11413); test: inhibition of Homo sapiens G6PD, dose series – biochemical, fluorescence, selectivity assay for P. falciparum G6PD inhibitor project, dose response (AID 504792); type: functional
Sequence of Glucose-6-phosphate 1-dehydrogenase (P11413 whole entry): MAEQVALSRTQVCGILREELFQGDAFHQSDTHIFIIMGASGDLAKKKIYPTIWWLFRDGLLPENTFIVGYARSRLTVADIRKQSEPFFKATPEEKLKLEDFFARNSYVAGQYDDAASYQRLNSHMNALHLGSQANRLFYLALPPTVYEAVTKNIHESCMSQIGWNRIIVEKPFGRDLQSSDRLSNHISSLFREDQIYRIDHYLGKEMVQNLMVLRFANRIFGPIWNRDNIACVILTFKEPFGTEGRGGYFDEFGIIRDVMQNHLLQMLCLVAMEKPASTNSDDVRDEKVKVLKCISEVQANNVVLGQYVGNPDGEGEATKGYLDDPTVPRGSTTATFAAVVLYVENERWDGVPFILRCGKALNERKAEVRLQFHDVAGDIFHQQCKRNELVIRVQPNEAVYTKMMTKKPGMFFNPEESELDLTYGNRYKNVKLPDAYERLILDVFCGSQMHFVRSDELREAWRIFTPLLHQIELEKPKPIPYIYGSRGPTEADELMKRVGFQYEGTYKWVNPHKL

Genome polyprotein = Genome polyprotein (dengue virus type 2, UniProt P29990); test: flavivirus cap methylation enzyme inhibition – biochemical, confirmation dose response, primary screen (AID 588689); type: functional
Sequence of Genome polyprotein (P29990 2492-3391 limits assumed): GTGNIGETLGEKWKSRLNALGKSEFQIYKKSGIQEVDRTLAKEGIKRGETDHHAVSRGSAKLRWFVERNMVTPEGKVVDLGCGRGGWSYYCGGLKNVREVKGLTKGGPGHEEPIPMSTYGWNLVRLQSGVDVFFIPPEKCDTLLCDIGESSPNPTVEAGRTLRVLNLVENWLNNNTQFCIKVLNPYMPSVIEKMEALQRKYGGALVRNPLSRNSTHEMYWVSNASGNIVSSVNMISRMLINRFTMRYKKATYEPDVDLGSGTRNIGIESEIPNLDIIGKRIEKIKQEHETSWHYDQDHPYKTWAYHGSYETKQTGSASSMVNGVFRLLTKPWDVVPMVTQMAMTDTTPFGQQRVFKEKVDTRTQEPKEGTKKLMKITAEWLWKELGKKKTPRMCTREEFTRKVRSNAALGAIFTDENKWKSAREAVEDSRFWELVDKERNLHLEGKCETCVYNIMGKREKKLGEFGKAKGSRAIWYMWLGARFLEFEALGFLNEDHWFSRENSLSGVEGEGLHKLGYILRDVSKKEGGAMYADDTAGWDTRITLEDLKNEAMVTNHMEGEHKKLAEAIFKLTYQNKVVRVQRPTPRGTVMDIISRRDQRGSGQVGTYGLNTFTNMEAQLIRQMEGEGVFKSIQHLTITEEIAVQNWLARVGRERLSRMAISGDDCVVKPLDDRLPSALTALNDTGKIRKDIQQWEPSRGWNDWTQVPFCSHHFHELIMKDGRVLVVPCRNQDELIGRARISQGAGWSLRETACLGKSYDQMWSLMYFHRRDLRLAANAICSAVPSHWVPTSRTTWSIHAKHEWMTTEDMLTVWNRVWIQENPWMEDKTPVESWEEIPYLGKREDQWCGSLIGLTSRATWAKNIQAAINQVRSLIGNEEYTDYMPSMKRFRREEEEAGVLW

[9] = THP-1 cell cytotoxicity, dose response, cytotoxicity control for non-replicating M. tuberculosis project (AID 489025); type: functional
cells = type: functional
[10] = molecular target: T3, Microphthalmia-associated transcription factor (Homo sapiens, UniProt O75030); test: reducers of TRPM1 reporter luminescence, concentration series – cell-based, SK-MEL-5, cherry-picked, set 3, MITF inhibitor project, dose response (AID 493073); type: functional;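 also: SK-MEL-5 melanoma cells with luciferase driven by the MITF target TRPM1 promoter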
T3 sequence (O75030 whole entry): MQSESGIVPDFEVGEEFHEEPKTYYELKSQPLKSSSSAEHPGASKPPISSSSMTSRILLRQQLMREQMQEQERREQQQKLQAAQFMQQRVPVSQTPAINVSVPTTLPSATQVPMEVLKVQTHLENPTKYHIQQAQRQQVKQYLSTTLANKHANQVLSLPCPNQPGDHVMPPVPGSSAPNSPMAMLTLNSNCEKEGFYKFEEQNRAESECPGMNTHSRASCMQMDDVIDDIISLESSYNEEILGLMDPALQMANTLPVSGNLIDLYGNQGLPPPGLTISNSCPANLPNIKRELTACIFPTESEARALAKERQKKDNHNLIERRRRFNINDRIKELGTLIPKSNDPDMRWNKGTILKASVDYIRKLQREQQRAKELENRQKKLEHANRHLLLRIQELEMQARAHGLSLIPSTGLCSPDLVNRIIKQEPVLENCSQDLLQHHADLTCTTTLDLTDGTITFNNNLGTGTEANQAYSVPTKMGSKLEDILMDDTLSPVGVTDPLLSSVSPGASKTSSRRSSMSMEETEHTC

Sequence of UDP-galactopyranose mutase (P9WIQ1 whole entry): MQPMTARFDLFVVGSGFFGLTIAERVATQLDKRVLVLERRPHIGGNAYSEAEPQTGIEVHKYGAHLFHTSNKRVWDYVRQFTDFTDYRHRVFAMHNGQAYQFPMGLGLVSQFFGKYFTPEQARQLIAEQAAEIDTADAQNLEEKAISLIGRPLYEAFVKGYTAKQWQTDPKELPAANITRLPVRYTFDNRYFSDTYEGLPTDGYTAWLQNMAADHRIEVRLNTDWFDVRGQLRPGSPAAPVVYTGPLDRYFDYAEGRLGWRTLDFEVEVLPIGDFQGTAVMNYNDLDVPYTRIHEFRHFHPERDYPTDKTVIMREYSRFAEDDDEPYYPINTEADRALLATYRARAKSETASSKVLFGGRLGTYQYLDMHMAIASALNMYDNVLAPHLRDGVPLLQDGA

For CCN1C(=O)NC(=O)/C(=C\c2cn(CC(=O)N3CCCC3)c3ccccc23)C1=O, the AC50 [1] was 107 µM (active).

For O=Nc1c2[nH]c3ccccc3[n+]([O-])c-2c2ccccc12, the CC50 [2] was > 40 µM (active), the EC50 (H4) was 12.5 µM (inconclusive) and the EC50 [3] was 8.47 µM (active). The IC50 (Exodeoxyribonuclease V) was > 119 µM (inactive), the CC50 [4] was 34.2 µM (active) and the IC50 [5] was > 119 µM (inactive). The EC50 [6] was 15.7 µM (active).

In the case of Clc1ccccc1-c1nnc(-c2cccs2)o1, the IC50 (HEK293) is reported as > 67.5 µM (inactive) and the IC50 [7] is reported as > 67.5 µM (inactive).

With Cc1cc(C)c(C)c(S(=O)(=O)N2CCN(C)CC2)c1C the IC50 (HEK293) was > 67.5 µM (inactive) and the IC50 [7] was > 67.5 µM (inactive).

In the case of O=C(OCCN1C(=O)c2cccc3c(N4CCOCC4)ccc(c23)C1=O)c1cccc(Cl)c1, the AC50 [1] is reported as 19.2 µM (active).

For N#Cc1sc2nc(-c3cccs3)cc(-c3ccc(Cl)cc3)c2c1N, the IC50 (CHO) was > 49.7 µM (inactive), the IC50 (Beta Lactamase) was 4.74 µM (active) and the AC50 (Cytochrome P450 3A4) was 1.41 µM (inconclusive). The AC50 (Cytochrome P450 2C19) was 3.98 µM (inconclusive).

In the case of CCS(=O)(=O)N1CCN(c2ccc([N+](=O)[O-])c(NC(C)c3ccccc3)c2)CC1 (configuration not stated), the IC50 [8] is reported as > 80 µM (inactive).

In the case of Cc1cc(O)c(C(C)C)cc1N=Cc1ccc(N(C)C)cc1, the IC50 (Genome polyprotein) is reported as > 100 µM (active) and the IC50 [8] is reported as 23.9 µM (inactive).

In the case of COc1ccccc1NC(=O)CCC(=O)N/N=C(/C)c1ccc(C)cc1, the IC50 (HEK293) is reported as 46.9 µM (inactive) and the IC50 [7] is reported as > 67.5 µM (inactive).

In the case of Cc1cc(C(=O)N/N=C/c2ccc([N+](=O)[O-])o2)c(C)o1, the CC50 [9] is reported as 38.9 µM (active), the IC50 (cells) is reported as 1.89 µM (active) and the IC50 (Exodeoxyribonuclease V) is reported as > 119 µM (inactive). For the same compound, the IC50 [5] was > 119 µM (inactive) and the AC50 [10] was 4.79 µM (active).
